Reference: PMC12362796, “Bilirubin Targeting WNK1 to Alleviate NLRP3‐Mediated Neuroinflammation” (Advanced Science, 2025)

Key:
full-length hWNK1 = target: T1, full-length hWNK1 (Homo sapiens, UniProt Q9H4A3); experiment: MicroScale Thermophoresis (MST), EGFP-tagged full-length WNK1 in HEK293T cell lysates; type: binding; details: 15 min incubation, lysates of EGFP-WNK1 expressing HEK293T cells, control ligand
T1 construct: We overexpressed full‐length WNK1 fused with Green Fluorescent Protein (GFP); expressed in transfected cells; host or cells: HEK293T
Experimental: To validate the direct binding of bilirubin to WNK1, we performed a Microscale Thermophoresis (MST) analysis, which assesses the binding capacity of a compound by measuring the movement of proteins over a microscopic temperature gradient.^[ [26], [27] ^] We overexpressed full‐length WNK1 fused with Green Fluorescent Protein (GFP) in HEK‐293 cells, incubated the lysates with bilirubin at varying dilutions, and subjected them to precise MST measurements in capillaries. […] Furthermore, biliverdin, a structurally similar intermediate product generated before bilirubin formation, was used as a control.
All WNK1 clones were derived from the original untagged hWNK1 cDNA (NM_018979), which was modified and subcloned into the pcDNA3.1, referred to as “full‐length WNK1” throughout this study. Truncated constructs, including 1–190aa, 191–491aa, 1–491aa, and 491–2382aa fragments, were generated by PCR using the full‐length template and subsequently ligated into linearized pcDNA3.1 vectors. WNK2 was obtained from Addgene Plasmid #24569, and WNK3 was obtained from Addgene Plasmid #81723. Both were subjected to base modifications and cloned into pcDNA3.1. The WNK4 clone was derived from hWNK4 cDNA (NM_032387.5), modified, and subcloned into the pCMV3‐C‐GFPSpark vector.
In HEK293T cells, proteins tagged with green fluorescent protein (GFP) were expressed. […]

TRPM2 channels = system: TRPM2 channels; set-up: method as in PMID 36921602; details: structural derivative of bilirubin; previous research; cited from earlier work
[1] = system: primary cultured hippocampal neurons; experiment: MQAE intracellular chloride measurement in primary cultured hippocampal neurons; type: cell-based, mouse; details: co-treatment with bilirubin, DIV8 primary hippocampal neurons, MQAE
Excerpt: Therefore, we hypothesized that bilirubin activation of WNK1 kinase activity might affect intracellular chloride levels. […] This was detected using the sensitive molecular probe N‐(Ethoxycarbonylmethyl)‐6‐Methoxyquinolinium Bromide (MQAE), as indicated by a reduction in MQAE fluorescence intensity (Figure 4C,E).^[ [32] ^]
To ascertain whether bilirubin regulates chloride ions through WNK1, we generated Wnk1 gene knockout primary cultured neurons. We achieved neuron‐specific deletion of Wnk1 in hippocampal neurons by transducing primary neurons isolated from Wnk1^flox/flox embryonic mice with a lentivirus expressing hSyn‐Cre‐EGFP.^[ [33], [34] ^] […] Intracellular chloride concentration is crucial for modulating inhibitory synaptic transmission and, consequently, neuronal excitability.
Since bilirubin‐induced activation of WNK1 kinase activity increases [Cl⁻]i in neurons, we sought to elucidate the downstream effector proteins of WNK1 that are involved in this process. Neuronal [Cl⁻]i is primarily regulated by the Cl⁻‐K⁺ symporter KCC2, with additional modulation by factors such as the Na⁺‐K⁺‐Cl⁻ co‐transporter NKCC1, GABAA receptors, and glycine receptors (GlyR), all of which contribute to [Cl⁻]i homeostasis.^[ [31] ^] To investigate the mechanism underlying bilirubin‐induced changes in [Cl⁻]i, we selectively targeted these proteins using pharmacological inhibitors (VU0463271 for KCC2, bumetanide for NKCC1, bicuculline for GABAA receptors, and strychnine for GlyR) and activated KCC2 using CLP257.^[ [35], [36] ^] […] The bilirubin‐induced effect on [Cl⁻]i was not observed in primary astrocytes (Figure S15A,B, Supporting Information) or the HEK 293T cell line (Figure S15C, Supporting Information), both of which lacked KCC2 expression (Figure S16A,B, Supporting Information), further confirming that the effects of bilirubin and WNK1 on [Cl⁻]i elevation are dependent on KCC2.
Intracellular chloride concentration ([Cl⁻]i) was measured using the MQAE fluorescent dye (Life Technologies) following established protocols (Zhang, Lee et al. 2015). […]

T1 sequence (Q9H4A3 whole entry, the tested form may be a part): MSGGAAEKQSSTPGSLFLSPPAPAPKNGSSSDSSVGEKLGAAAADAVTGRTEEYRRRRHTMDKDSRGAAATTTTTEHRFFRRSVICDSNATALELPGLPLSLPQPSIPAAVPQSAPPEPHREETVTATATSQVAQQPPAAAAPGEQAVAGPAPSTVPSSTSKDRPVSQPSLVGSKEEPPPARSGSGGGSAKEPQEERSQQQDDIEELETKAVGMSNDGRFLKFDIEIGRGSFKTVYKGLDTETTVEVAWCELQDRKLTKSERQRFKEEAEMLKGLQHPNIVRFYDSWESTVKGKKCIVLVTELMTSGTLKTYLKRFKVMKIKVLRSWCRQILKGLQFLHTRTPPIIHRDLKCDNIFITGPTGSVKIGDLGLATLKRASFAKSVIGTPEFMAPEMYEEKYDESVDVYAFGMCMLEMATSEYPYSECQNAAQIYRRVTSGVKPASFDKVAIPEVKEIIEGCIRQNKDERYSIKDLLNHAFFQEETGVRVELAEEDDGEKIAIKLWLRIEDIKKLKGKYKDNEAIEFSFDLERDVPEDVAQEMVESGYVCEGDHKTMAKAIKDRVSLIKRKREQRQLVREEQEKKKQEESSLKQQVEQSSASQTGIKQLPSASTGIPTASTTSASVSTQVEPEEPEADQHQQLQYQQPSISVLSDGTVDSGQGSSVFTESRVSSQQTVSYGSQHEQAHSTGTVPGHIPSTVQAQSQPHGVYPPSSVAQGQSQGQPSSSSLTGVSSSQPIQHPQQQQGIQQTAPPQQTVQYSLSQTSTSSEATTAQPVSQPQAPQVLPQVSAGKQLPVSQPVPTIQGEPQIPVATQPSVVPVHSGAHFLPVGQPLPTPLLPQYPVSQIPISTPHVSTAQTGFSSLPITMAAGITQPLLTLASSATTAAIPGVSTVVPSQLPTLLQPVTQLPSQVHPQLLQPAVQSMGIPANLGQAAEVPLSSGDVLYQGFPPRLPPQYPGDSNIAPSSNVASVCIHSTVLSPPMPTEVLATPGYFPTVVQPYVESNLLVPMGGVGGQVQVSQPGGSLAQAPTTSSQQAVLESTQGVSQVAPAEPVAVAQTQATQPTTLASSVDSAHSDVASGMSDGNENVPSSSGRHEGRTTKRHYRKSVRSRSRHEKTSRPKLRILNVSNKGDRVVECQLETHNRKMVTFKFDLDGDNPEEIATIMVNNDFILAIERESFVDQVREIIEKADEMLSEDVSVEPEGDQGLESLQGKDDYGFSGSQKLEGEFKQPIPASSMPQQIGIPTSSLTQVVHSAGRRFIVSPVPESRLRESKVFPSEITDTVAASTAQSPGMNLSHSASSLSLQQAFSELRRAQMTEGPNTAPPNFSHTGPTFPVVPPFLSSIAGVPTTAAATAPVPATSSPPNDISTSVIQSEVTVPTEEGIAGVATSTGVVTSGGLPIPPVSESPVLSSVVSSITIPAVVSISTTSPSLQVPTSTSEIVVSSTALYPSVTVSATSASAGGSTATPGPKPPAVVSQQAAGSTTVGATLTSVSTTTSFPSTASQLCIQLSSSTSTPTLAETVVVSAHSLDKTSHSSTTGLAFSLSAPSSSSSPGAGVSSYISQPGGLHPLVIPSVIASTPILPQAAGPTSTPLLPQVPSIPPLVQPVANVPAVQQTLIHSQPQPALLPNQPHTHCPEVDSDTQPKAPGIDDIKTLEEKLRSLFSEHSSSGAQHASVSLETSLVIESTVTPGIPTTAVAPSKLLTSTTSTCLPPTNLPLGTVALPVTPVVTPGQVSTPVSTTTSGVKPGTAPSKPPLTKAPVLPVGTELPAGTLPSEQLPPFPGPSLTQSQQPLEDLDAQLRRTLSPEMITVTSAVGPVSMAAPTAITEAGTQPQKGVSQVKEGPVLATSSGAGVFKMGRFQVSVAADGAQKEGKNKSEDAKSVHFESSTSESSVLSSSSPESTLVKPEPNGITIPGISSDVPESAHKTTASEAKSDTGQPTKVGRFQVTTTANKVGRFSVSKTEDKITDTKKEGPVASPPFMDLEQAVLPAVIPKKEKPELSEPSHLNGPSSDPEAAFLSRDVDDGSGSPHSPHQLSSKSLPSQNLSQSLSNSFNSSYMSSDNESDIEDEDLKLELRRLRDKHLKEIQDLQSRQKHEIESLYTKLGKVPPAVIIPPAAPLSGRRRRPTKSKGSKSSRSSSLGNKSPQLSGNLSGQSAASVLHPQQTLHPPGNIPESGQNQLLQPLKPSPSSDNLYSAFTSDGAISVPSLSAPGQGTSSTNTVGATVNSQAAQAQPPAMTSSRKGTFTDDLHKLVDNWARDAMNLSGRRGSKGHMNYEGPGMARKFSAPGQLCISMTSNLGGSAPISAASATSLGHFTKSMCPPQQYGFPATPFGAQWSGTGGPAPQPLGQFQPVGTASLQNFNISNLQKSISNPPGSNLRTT

For C=CC1=C(C)/C(=C/C2=NC(=C\c3[nH]c(/C=C4\NC(=O)C(C)=C4C=C)c(C)c3CCC(=O)O)/C(CCC(=O)O)=C2C)NC1=O [Biliverdin, reference compound], the Kd (full-length hWNK1) is given as 29.7 µM and the “activation of TRPM2 channels” value (TRPM2 channels) is given as “can activate”.
For O=C1N=C(N2CCCCN2)S/C1=C\c1ccc(F)cc1O [CLP257, reference compound], the “effect on bilirubin-induced elevation of [Cl−]i” value [1] was “counteracted the effect of bilirubin”.
